# Test results taken from patent US20210317102A1, “INHIBITORS OF INTEGRATED STRESS RESPONSE PATHWAY” (Praxis Biotech LLC, priority 2019, published 2021).
# Assays:
# ARH cells = assay: Secretion of Ig-kappa by ARH cells; type: cell-based; settings: 1 µM of compound 10 for 24 hours, vs vehicle (0.1% DMSO)
# Description: ARH cells were maintained at 37° C. and 5% CO2 and seeded at a density of 500,000 cell/well in RPMI supplemented with, 100 U/ml penicillin, and 100 μg/ml streptomycin in a 12-well culture plate. Cells were treated either with vehicle (0.1% DMSO) or […] of compound 10 for 24 hours. Then, culture media with cells were recovered in microtubes and centrifuged at 500 g for 5 minutes. Supernatants (SN) which contain secreted proteins were extracted and protease and phosphatase inhibitors (Roche) were added to each sample. SN were centrifuged at 2,000 g for 10 min to discard any cellular debris and 900 μL SN were transferred to empty microtubes with 400 μL methanol by mixing well. 200 μL of chloroform was added to the mix and then samples were centrifuged at 14,000 g for 2 minutes. Top aqueous layer was discarded by pipetting off and 400 μL methanol was added to each sample by mixing well. Samples were then centrifuged at 17,000 g for 8 minutes and methanol was discarded by pipetting off without disturbing the protein pellet. […] Quantification of protein bands was done by densitometry using ImageJ software.
# Percent of secreted Ig kappa light chain by ARH cells treated with vehicle or compound 10 from three independent experiments is shown in FIG. 4. Percentage was calculated as the percent relative to Ig kappa secretion levels from ARH cells treated with vehicle which correspond to 100%.
# [1] = tested on: Chinese hamster ovary (CHO) cells; assay: Protein synthesis assay (puromycin incorporation, western blot); type: cell-based; settings: Cricetulus griseus; unstressed CHO cells (without Tg), 1 μM test compound, 2 hours; media alone = 100%; read-out: % Protein synthesis relative to untreated (1 μM test compound)
# In short: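 CHO cells treated 2 h with 1 μM compound alone, or with 300 nM thapsigargin plus 1 μM compound, then pulsed 30 min with 10 μg/ml puromycin. Puromycin incorporation read by anti-puromycin western blot with densitometry. Unstressed values normalized to media alone (100%); stressed recovery normalized to media alone (100%) and Tg alone (0%).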
smiles,measurement,setting,value
"O=C(COc1ccc(Cl)c(F)c1)N[C@H]1CC[C@H](CNC(=O)c2ccc3cc(Cl)ccc3n2)CC1 [Compound 10, trans-6-chloro-N-((4-(2-(4-chloro-3-fluorophenoxy)acetamido)cyclohexyl)methyl)quinoline-2-carboxamide]",Secretion of Ig kappa light chain,ARH cells,increased the secretion of the immunoglobulin light chain kappa
same,activity at 1 µM,[1],229%
